Values after ≈ are worked out from the molar mass of the structure shown. Read-outs that look alike come from different tables or passages of the source.
Legend:
CCL22 = target: T1, CCL22 (Homo sapiens, UniProt O00626); experiment: TRIC-r calcium assay, neutraligand protocol: compound preincubated with CCL22, EGFP-CCR4+Gqi5+ HEK cells; assay type: cell-based; conditions: for IC50: 5 nM CCL22 preincubated 1 h with compound, 21 °C, read-out: IC50 for CCL22 neutralization (calcium assay); for inhibition at 2 µg/mL: 2 μg/ml compound preincubated 1 h with 5 nM CCL22, read-out: inhibition of CCL22-induced calcium responses (primary screen)
T1 construct: codes for the mature CCL17 or CCL22 with an N-terminal thioredoxin-hexahistidin (TRX- (His)6) tag; thioredoxin (TRX) (N, cleaved yes); (His)6 (N, cleaved yes); made in house; host or cells: E. coli BL21 (DE3)
T1 sequence (O00626 25-93): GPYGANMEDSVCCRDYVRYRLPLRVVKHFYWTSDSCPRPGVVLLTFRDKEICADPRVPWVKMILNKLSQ
Description: (§1) EGFP-CCR4^+Gqi5^+HEKcells were loaded with fluorescent Ca^2+-indicator Indo-1 AM (5μM, Interchim) for 45 min at 37 °C. […] Cells (100,000 cells/well, 100μl) were seeded in black clear bottom 96-well plates (Greiner), and centrifuged at 250 × g for 5 min.
(§2) Two plates (96-well plates, Greiner) were prepared for the screen: one containing test compounds alone in order to determine their direct agonistic activity, and another one containing test compounds mixed with CCL17 or CCL22 at room temperature for 1 h (neutraligand protocol). The chemokines and test compounds were prepared at a 3× concentration, while digitonin was prepared at a 4× concentration. The CCR4 antagonist, C-021 served as control in the experiment. In the antagonist protocol, compounds were added to the cell plate (one compound per well) and incubated with cells for 30 min at room temperature, while the agonist (CCL17 or CCL22) was added to the ligand plate only.
(§3) Dye loaded cells were placed in the FlexStation 3 (Molecular Devices). […] For the primary screening, the ligands (50μl of chemokine mixed with DMSO or test compounds) were added to the cells at 40 s, followed by digitonin addition (50μl) at 100 s to the cells. Molecules were screened at a final concentration of 2μg/ml with 5 nM CCL17 or CCL22. […] The calcium response values (height of peak response over baseline) were determined. Hits were selected by comparing the response amplitude at the time of the chemokine addition ± test compound. The Z’ factor[29] was calculated according to the following equation: Z’ = 1-(3SD+ + 3SD−)/|Ave+ − Ave−|, where SD+ and Ave+ are respectively the standard deviation and the mean value of the positive controls (chemokine + DMSO), while SD− and Ave− are respectively the standard deviation and the mean value of the negative controls (HEPES-BSA (0.1%) mixed with DMSO, or cells mixed with C-021). Hit molecules were confirmed by performing concentration-response curves and their half maximal inhibitory concentration (IC50) values were calculated using the Kaleidagraph software.

CCL17 = target: T2, CCL17 (Homo sapiens, UniProt Q92583); experiment: TRIC-r calcium assay, neutraligand protocol: compound preincubated with CCL17, EGFP-CCR4+Gqi5+ HEK cells; assay type: cell-based; conditions: for IC50: 5 nM CCL17 preincubated 1 h with compound, 21 °C, read-out: IC50 for CCL17 neutralization (calcium assay); for inhibition at 2 µg/mL: 2 μg/ml compound preincubated 1 h with 5 nM CCL17, read-out: inhibition of CCL17-induced calcium responses (primary screen)
T2 construct: codes for the mature CCL17 or CCL22 with an N-terminal thioredoxin-hexahistidin (TRX- (His)6) tag; thioredoxin (TRX) (N, cleaved yes); (His)6 (N, cleaved yes); made in house; host or cells: E. coli BL21 (DE3)
T2 sequence (Q92583 24-94): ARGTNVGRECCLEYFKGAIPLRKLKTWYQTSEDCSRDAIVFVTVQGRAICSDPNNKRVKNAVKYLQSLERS
Description: as §1, §2, §3

[1] = Solubility measurements (RP-HPLC); assay type: physicochemical; conditions: dissolved at 10 µM, room temperature; for solubility at 1 h: kinetic from dmso stock
Description: Standard stock solutions of compounds (10mM) were prepared in DMSO, and the molecules were dissolved at a concentration of 10µM in each of the three buffers. The samples were shaken for 1h at room temperature, and centrifuged at 15,000×g . The compounds concentration in the supernatant solutions was determined using RP-HPLC (Gilson) technique. The measurements were done with a UV detector set at 230nm. The measurements were carried out at room temperature using a C18 column ([…], 50×4.6mm, Phenomenex). The aqueous mobile phase contained 0.05% trifluoroacetic acid (solvent A, Sigma-Aldrich). The organic phase was HPLC grade acetonitrile (Sigma-Aldrich CHROMASOLV) (solvent B). The mobile phase flow rate was 2ml/min, and the following program was applied for the elution: 0–0.1min, 5% B; 0.1–2.6min, 5–95% B; 2.6–3.1min, 95% B; 3.1–3.3min, 95–5% B; and 3.3–6min, 5% B. To establish external calibration curves, increasing concentrations of each compound were prepared from standard stock solutions.
The chromatograms were recorded by injecting 20µl of each standard solution, and the calibration curves were plotted using peak areas. […]

HUT78 T cells = experiment: WST-1 metabolic activity assay; assay type: cell-based, human; conditions: 30 μM, 72 h
Source text: WST-1 metabolic activity assay
The colorimetric WST-1 cell metabolic assay (Ozyme) was used to assess the cytotoxic effect of chemokine neutraligands. This is a cell viability test based on the enzymatic cleavage by the mitochondrial succinate-tetrazolium reductase of a tetrazolium salt, WST-1 (4-[3-(4-Iodophenyl)-2-(4-nitrophenyl)-2H-5-tetrazolio]-1,3 benzene disulfonate), into a water- […]
soluble formazan dye which can be detected by absorbance at 420-480nm. HUT78 T cells (or HaCat cells) were seeded on 24-well plates (200,000 cells per well) and were incubated […]
concentration ≤1% on cells). The background control was reserved as one well containing the culture medium only. The plates were incubated for 72h at 37°C. Three days later, the medium containing the neutraligands was removed, and WST-1 reagent (1:10 final dilution) (Ozyme) was added to each well for a 2h incubation at 37°C as the manufacturer’s recommendation. The plates were shaken and absorbance was measured at 450nm (reference wavelength 690nm) against the background control, using a multiwell plate reader (EnVision, Perkin Elmer). Assays were performed as three independent replicates. […]
(Heidelberg, Germany) and was cultured in Dulbecco’s Modified Eagle Medium (DMEM) (Invitrogen) supplemented with 10% fetal bovine serum (FBS) (Gibco-BRL), 100U/ml penicillin (Invitrogen), 100µg/ml streptomycin (Invitrogen) and 2mM L-glutamine (Invitrogen) at 37°C and 5% CO 2. The cells received fresh medium every other day and were subcultured every 10 days. HaCat cells were seeded in a 24-well plate (ESSEN Bioscience) at a density of 200,000 cells per well, and were allowed to grow until confluence. A scratch wound along the cell monolayer was created using the Essen woundmakerTM. Cells were washed twice with PBS to remove detached cells, and were treated with serum-free culture medium in the absence or presence of 100ng/ml chemokine (CCL22 or CCL17) preincubated with DMSO or […]
The molecules were also tested alone […]
without the chemokine. […] One […]
µg/ml of mitomycin C (Sigma-Aldrich) was added throughout the experiment in order to block cell proliferation. Once treated, the cells were immediately placed into the IncuCyteTM live-cell imaging, and the cell migration onto the wounded area was examined for 72h. Phase-contrast images acquired for each sample were captured every 2h (objective lens x10), and […]

[2] = target: T3, EGFP-CCR4 on HEK cells (human) (UniProt P51679)
T3 sequence: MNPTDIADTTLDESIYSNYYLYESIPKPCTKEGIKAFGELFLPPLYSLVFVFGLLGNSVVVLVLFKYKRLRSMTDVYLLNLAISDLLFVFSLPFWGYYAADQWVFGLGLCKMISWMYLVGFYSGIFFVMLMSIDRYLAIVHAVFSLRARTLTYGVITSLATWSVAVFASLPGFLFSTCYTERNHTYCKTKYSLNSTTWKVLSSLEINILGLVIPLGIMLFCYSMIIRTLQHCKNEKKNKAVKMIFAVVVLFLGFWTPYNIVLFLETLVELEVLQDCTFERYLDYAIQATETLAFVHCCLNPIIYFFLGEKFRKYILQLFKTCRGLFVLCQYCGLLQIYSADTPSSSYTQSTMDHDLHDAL

[3] = HEK293, compound 5 µM, read-out: Inhibition of CCL22 calcium responses (%)
[4] = HEK293, compound 5 µM, read-out: Inhibition of CCL17 calcium responses (%)
[5] = HEPES buffer, aqueous buffer, read-out: solubility in HEPES buffer
[6] = complete cell culture medium, plasma or biological fluid, read-out: solubility in the cell culture medium

Question: Which inhibition at 5 µM (CCL22; [3]) does the source give for `Cn1c(=O)c2c(ncn2C)n(C)c1=O` [Caffeine, reference compound] here?
Answer: 0%

Question: And the inhibition at 5 µM (CCL17; [4])?
Answer: 0%

Question: And the “Inhibition of CCL17 calcium responses (%)” value (CCL17; compound 5 µM)?
Answer: no effect

Question: With `COc1ccc([C@@H](C)C(=O)c2ccc(O)cc2O)cc1` [GPN025, (R)-1-(2,4-dihydroxyphenyl)-2-(4-methoxyphenyl)propan-1-one] as the molecule, how does the IC50 (CCL22) read?
Answer: 10600 ± 3700 nM

Question: What about the inhibition at 2 µg/mL (CCL22; HEK293) of the same molecule?
Answer: 44%

Question: And the solubility at 1 h [1, 5]?
Answer: > 10 µM

Question: What about the solubility at 1 h [1, 6] of the same molecule?
Answer: > 10 µM

Question: And the “inhibition of HUT78 cell metabolic activity” value (HUT78 T cells)?
Answer: 81.3%

Question: Which results are given for `COc1cc(C2=N/C(=C\c3ccccc3)C(=O)O2)cc(OC)c1OC` [GPN251, (Z)-4-benzylidene-2-(3,4,5-trimethoxyphenyl)oxazol-5(4H)-one]?
Answer: solubility at 1 h [1, 5]: 0.7 µM (≈ 0.238 µg/mL); solubility in the cell culture medium ([1]; 1 h): not detected as a free molecule; IC50 (CCL17): 900 ± 100 nM; inhibition at 2 µg/mL (CCL17; HEK293): 53%

Question: What does the source list for `CN1C(=O)N(C)C2=NNC=NC2(O)C1=O` (centres unmarked) [GPN355, 4a-hydroxy-6,8-dimethyl-6,8-dihydropyrimido[5,4-e][1,2, 4]triazine-5,7(2H, 4aH)-dione]?
Answer: IC50 (CCL22): 200 nM; inhibition at 2 µg/mL (CCL22; HEK293): 100%; solubility at 1 h [1, 5]: > 10 µM; solubility at 1 h [1, 6]: > 10 µM; inhibition of HUT78 cell metabolic activity (HUT78 T cells): 23.1%; IC50 (CCL17): 9600 ± 900 nM; inhibition at 2 µg/mL (CCL17; HEK293): 42%

Question: What does the source list for `O=C(O)c1ccccc1O` [GPN0001207]?
Answer: Inhibition of CCL22 calcium responses (%) (CCL22; compound 5 µM, 5 µM): 0.0%; Inhibition of CCL22 calcium responses (%) (CCL22; compound 5 µM, listed as GPN001207, 5 µM): no inhibitory effect; Inhibition of CCL17 calcium responses (%) (CCL17; compound 5 µM): 0.0%

Question: For `CC(C)Cn1c(=O)n(C)c(=O)c2[nH]cnc21` [IBMX, 3-isobutyl-1-methyl xanthine, reference compound], which inhibition at 5 µM (CCL22; [3]) is on record?
Answer: 0%

Question: And the inhibition at 5 µM (CCL17; [4])?
Answer: 0%

Question: And the “Inhibition of CCL17 calcium responses (%)” value (CCL17; compound 5 µM)?
Answer: no effect

Question: With `Cn1c(=O)c2[nH]cnc2n(C)c1=O` [Theophylline, reference compound] as the molecule, how does the inhibition at 5 µM (CCL22; HEK293, read-out: Inhibition of CCL22 calcium responses (%)) read?
Answer: 0%

Question: And the inhibition at 5 µM (CCL17; HEK293, read-out: Inhibition of CCL17 calcium responses (%))?
Answer: 0%

Question: What about the “Inhibition of CCL17 calcium responses (%)” value (CCL17; compound 5 µM) of the same molecule?
Answer: no effect

Question: With `CC(=O)Oc1ccccc1C(=O)O` [aspirin, Acetylsalicylic acid, reference compound] as the molecule, how does the inhibition at 5 µM (CCL22; [3]) read?
Answer: 0%

Question: And the inhibition at 5 µM (CCL17; [4])?
Answer: 0%

Question: Which EC50 of calcium responses in EGFP-CCR4+ Gqi5+ HEK cells at 21 °C [2] does the source give for “recombinant human CCL17 (from UniProt Q92583 24-94) (ligand)” here?
Answer: 3.7 nM

B1: recombinant human CCL22 (ligand)
chain: T1 sequence (O00626 25-93)
Question: For B1, which EC50 of calcium responses in EGFP-CCR4+ Gqi5+ HEK cells at 21 °C [2] is on record?
Answer: 2.9 nM
